Patent US20060025566A1, “Macrocyclic modulators of the ghrelin receptor” (Tranzyme Pharma Inc., priority 2003, published 2006)
Like-named read-outs stand apart in the source and are kept apart here. Values belong to the compound of their own block, whether it stands above or below them.

Experiments:
[1] = molecular target: human ghrelin receptor (hGHS-R1a) (Homo sapiens, UniProt Q92847); assay: Aequorin functional assay (ghrelin receptor), CHO-K1 cells co-expressing Gα16 and aequorin; type: cell-based; conditions: functional (agonist) activity, standard method; TFA salts unless otherwise noted
From the text: Coelenterazine (Molecular Probes, Leiden, The Netherlands). […] Compound Handling
(§1) • 1. […] Key Aspects of Method • 1. […] Results

[2] = molecular target: T1, human growth hormone secretagogue receptor (hGHS-R1a) (Homo sapiens, UniProt Q92847); assay: Competitive radioligand binding assay (ghrelin receptor), [125I]-ghrelin displacement on GHS-R/HEK 293 membranes
T1 construct: purchased PerkinElmer BioSignal #RBHGHSM, lot#1887; host or cells: HEK-293, stably transfected (membranes)
Method: The competitive binding assay at the human growth hormone secretagogue receptor (hGHS-R1a) was carried out analogously to assays described in the literature.
Multiscreen Harvest plates-GF/C (Millipore, #MAHFC 1H60) • 4. […] Bottom seal (Millipore, #MATAH0P00) • 7. […] Binding Buffer: 25 mM Hepes (pH 7.4), 1 mM CaCl2, 5 mM MgCl2, 2.5 mM EDTA, 0.4% BSA Assay Volumes
Competition experiments were performed in a 300 μl filtration assay format. • 1. 220 μL of membranes diluted in binding buffer • 2. 40 μL of compound diluted in binding buffer • 3. […] Compound Handling
Compounds were provided frozen on dry ice at a stock concentration of 10 mM diluted in 100% DMSO and stored at −80° C. until the day of testing. On the test day, compounds were allowed to thaw at rt O/N and then diluted in assay buffer according to the desired test concentrations.
Plates were sealed with TopSeal-A, vortexed gently and incubated at rt for 30 min. The reaction was arrested by filtering samples through Multiscreen Harvest plates (pre-soaked in 0.5% polyethyleneimine) using a Tomtec Harvester, washed 9 times with 500 μL of cold 50 mM Tris-HCl (pH 7.4, 4° C.), and then plates were air-dried in a fumehood for 30 min. A bottom seal was applied to the plates prior to the addition of 25 μL of MicroScint-0 to each well. […] Results were expressed as counts per minute (cpm).
Data were analyzed by GraphPad Prism (GraphPad Software, San Diego, Calif.) using a variable slope non-linear regression analysis.
as §1

[3] = binding activity at the human ghrelin receptor, [125I]-ghrelin competition, GHS-R/HEK 293 membranes, read-out: Ki
[4] = binding activity, standard method, TFA salts unless otherwise noted, read-out: Ki
[5] = binding activity at the human ghrelin receptor, [125I]-ghrelin displacement, read-out: Ki
[6] = [125I]-ghrelin competition, GHS-R/HEK 293 membranes, Table 3A, read-out: Binding Activity at the Human Ghrelin Receptor
[7] = second table titled 3C (compounds 435-449), human ghrelin receptor, read-out: Ki
[8] = Table 3E, human ghrelin receptor, read-out: Ki

T1 sequence (Q92847 whole entry): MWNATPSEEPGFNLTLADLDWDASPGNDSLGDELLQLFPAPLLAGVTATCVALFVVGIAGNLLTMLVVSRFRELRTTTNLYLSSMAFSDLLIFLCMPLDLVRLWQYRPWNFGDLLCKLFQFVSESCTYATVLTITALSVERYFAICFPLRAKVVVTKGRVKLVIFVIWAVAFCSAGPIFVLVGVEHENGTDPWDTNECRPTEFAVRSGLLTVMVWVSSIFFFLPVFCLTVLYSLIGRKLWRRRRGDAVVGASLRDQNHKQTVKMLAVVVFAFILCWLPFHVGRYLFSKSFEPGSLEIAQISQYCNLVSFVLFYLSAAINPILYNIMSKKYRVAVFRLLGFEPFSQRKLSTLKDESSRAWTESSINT
human ghrelin receptor (hGHS-R1a), sequence (Q92847 whole entry): as above

EC50 [1]: 100 to 1000 nM
Ki [2, 3]: 100 to 1000 nM
Ki [2, 4]: 10 to 100 nM
Structure (SMILES): CC(C)C[C@@H]1NCCOc2ccccc2CCCNC(=O)[C@@H](Cc2ccccc2)NC(=O)C2(CCCC2)NC1=O [compound 97]

EC50 [1]: 1 to 100 nM
Ki [2, 5]: 0.1 to 10 nM
Ki [2, 4]: 0.1 to 10 nM
Structure (SMILES): CC1C(=O)NC(Cc2ccc(Cl)cc2)C(=O)NCCCc2ccccc2OCCNC(C2CC2)C(=O)N1C (centres unmarked) [compound 299]

EC50 [1]: 1 to 100 nM
Ki [2, 3]: 10 to 100 nM
Ki [2, 4]: 10 to 100 nM
Structure (SMILES): CC(C)C[C@@H]1NCCOc2ccccc2C=CCNC(=O)[C@H](Cc2ccc(F)cc2)NC(=O)C2(CCCC2)NC1=O (stereo in doubt) [compound 154]

EC50 [1]: 100 to 1000 nM
Ki [2, 3]: 100 to 1000 nM
Ki [2, 4]: 100 to 1000 nM
Structure (SMILES): CC(C)[C@@H]1NCCOc2ccccc2CCCNC(=O)[C@H](Cc2ccccc2)NC(=O)C2(CCCC2)NC1=O [Compound 9]

EC50 [1]: 1 to 100 nM
Ki [2, 3]: 100 to 1000 nM
Ki [2, 4]: 100 to 1000 nM
Structure (SMILES): CCC[C@@H]1NCCOc2ccccc2CCCNC(=O)[C@@H](Cc2c[nH]c3ccccc23)NC(=O)CN(C)C1=O [Compound 6]

EC50 [1]: 1 to 100 nM
Ki [2, 5]: 10 to 100 nM
Ki [2, 4]: 10 to 100 nM
Structure (SMILES): O=C1NC/C=C/c2ccccc2OCCN[C@@H](C2CC2)C(=O)NC2(CCCC2)C(=O)N[C@H]1Cc1cccc(Cl)c1 [compound 346]

Ki [2, 3]: 1000 to 10000 nM
Structure (SMILES): C[C@@H]1NCCOc2ccccc2CCCNC(=O)[C@@H](Cc2ccccc2)NC(=O)CN(C)C1=O [compound 72]

Ki [2, 3]: 1000 to 10000 nM
Structure (SMILES): O=C1NC2(CCCC2)C(=O)N[C@@H](Cc2ccccc2)C(=O)NCC=Cc2ccccc2OCCN[C@H]1Cc1ccc(Cl)cc1 (stereo in doubt) [compound 124]

Ki [2, 3]: 100 to 1000 nM
Structure (SMILES): O=C1NC2(CCCC2)C(=O)NC(Cc2ccccc2)C(=O)NCC=Cc2ccccc2OCCNC1Cc1cccs1 (stereo in doubt) [compound 135]

Ki [2, 3]: > 10000 nM
Structure (SMILES): CCCC1NCCOCCNC(=O)C(Cc2ccccc2)NC(=O)CN(C)C1=O (centres unmarked) [compound 81]

Ki [2, 6]: > 10000 nM
Structure (SMILES): CCC1NC(=O)C(C)N(C)C(=O)C(C(C)CC)NCCOc2ccccc2CCCNC1=O (centres unmarked) [compound 172]

Ki [2, 3]: > 10000 nM
Structure (SMILES): CCC[C@@H]1NCCOc2ccccc2CCCNC(=O)[C@@H](Cc2ccccc2)NC(=O)[C@H](Cc2ccccc2)NC1=O [compound 64]

Ki [2, 6]: > 10000 nM
Structure (SMILES): CC(C)C1NCCOc2ccccc2CCCNC(=O)C(Cc2ccccc2)NC(=O)C2(CCNCC2)NC1=O (centres unmarked) [compound 207]

Ki [2, 5]: 10 to 100 nM
Structure (SMILES): C[C@@H]1C(=O)N[C@H](Cc2ccc(F)c(F)c2)C(=O)NCCCc2ccccc2OCCN[C@@H](C2CC2)C(=O)N1C [compound 316]

Ki [2, 6]: 1000 to 10000 nM
Structure (SMILES): CC(C)C[C@H]1C(=O)NC2(CCCC2)C(=O)N[C@@H](Cc2ccccc2)C(=O)NCC=Cc2ccccc2OCCN1C (stereo in doubt) [compound 203]

Ki [2, 3]: > 10000 nM
Structure (SMILES): O=C1NC2(CCCC2)C(=O)NC(Cc2ccccc2)C(=O)NCC=Cc2ccccc2OCCNC1Cc1ccc(F)cc1 (centres unmarked) [compound 125]

Ki [2, 3]: 100 to 1000 nM
Structure (SMILES): CCC[C@@H]1NC(=O)[C@@H](C(C)C)NCCOc2ccccc2C=CCNC(=O)[C@H](Cc2ccccc2)NC1=O (stereo in doubt) [compound 13]

Ki [2, 3]: 1000 to 10000 nM
Structure (SMILES): CCC(C)C1NCCOc2ccccc2CCCNC(=O)C(Cc2ccccc2)NC(=O)C(C(C)CC)N(C)C1=O (centres unmarked) [compound 149]

Ki [2, 3]: 1000 to 10000 nM
Structure (SMILES): CC(C)CC1NCCOc2ccccc2CCCNC(=O)C(Cc2ccccc2)NC(=O)C(C)NC1=O (centres unmarked) [compound 93]

Ki [2, 5]: 100 to 1000 nM
Structure (SMILES): C[C@@H]1C(=O)N[C@H](Cc2ccc(F)cc2)C(=O)NCCCc2ccccc2OCCN[C@@H](CCCN)C(=O)N1C [compound 339]

Ki [2, 3]: > 10000 nM
Structure (SMILES): CCCC1NCc2cccc(c2)CCNC(=O)C(Cc2ccccc2)NC(=O)CN(C)C1=O (centres unmarked) [compound 85]

Ki [2, 3]: > 10000 nM
Structure (SMILES): CC(C)C[C@H]1NCCOc2ccccc2CCCNC(=O)[C@@H](Cc2ccccc2)NC(=O)C2(CCCC2)NC1=O [compound 98]

Ki [2, 3]: > 1000 nM
Structure (SMILES): O=C1NC2(CCCC2)C(=O)N[C@@H](Cc2ccccc2)C(=O)NC/C=C/c2ccccc2OCCN[C@H]1Cc1cccnc1 [compound 132]

Ki [2, 7]: > 10000 nM
Structure (SMILES): CC(C)CC1NCCOc2ccccc2/C=C/CNC(=O)C(Cc2c[nH]cn2)NC(=O)C2(CCCC2)NC1=O (single isomer, unassigned) [444a]

Ki [2, 3]: > 10000 nM
Structure (SMILES): C[C@@H]1C(=O)N[C@H](Cc2ccccc2)C(=O)NCCCc2ccccc2OCCNC2(CC2)C(=O)N1C [compound 121]

Ki [2, 6]: 100 to 1000 nM
Structure (SMILES): CC(C)C[C@@H]1NCCOc2ccccc2C=CCNC(=O)[C@H](Cc2ccc(-c3ccccc3)cc2)NC(=O)C2(CCCC2)NC1=O (stereo in doubt) [compound 157]

Ki [2, 5]: 100 to 1000 nM
Structure (SMILES): COC[C@@H]1NCCOc2ccccc2CCCNC(=O)[C@@H](Cc2ccc(F)cc2)NC(=O)[C@@H](C)N(C)C1=O [compound 336]

Ki [2, 3]: > 10000 nM
Structure (SMILES): NCCCC[C@@H]1NCCOc2ccccc2CCCNC(=O)[C@H](Cc2ccccc2)NC(=O)C2(CCCC2)NC1=O [compound 103]

Ki [2, 7]: > 10000 nM
Structure (SMILES): CCC(C)C1NCCOc2ccccc2/C=C/CNC(=O)C(CO)NC(=O)C2(CCCC2)NC1=O (single isomer, unassigned) [442a]

Ki [2, 3]: > 10000 nM
Structure (SMILES): CCC[C@@H]1NCCOc2ccccc2CCCNC(=O)[C@@H](CCCN)NC(=O)CN(C)C1=O [compound 53]

Ki [2, 3]: 1000 to 10000 nM
Structure (SMILES): CCCC1NCc2cccc(c2)CNC(=O)C(Cc2ccccc2)NC(=O)CN(C)C1=O (centres unmarked) [compound 84]

Ki [2, 3]: 100 to 1000 nM
Structure (SMILES): C[C@@H]1C(=O)N[C@H](Cc2ccccc2)C(=O)NCCCc2ccccc2OCCN[C@@H]([C@@H](C)O)C(=O)N1C [compound 119]

Ki [2, 8]: 1000 to 10000 nM
Structure (SMILES): CCC[C@@H]1NCCOc2ccccc2CCCNC(=O)[C@H](Cc2ccccc2)NC(=O)[C@H]2CCCN2C1=O

Ki [2, 6]: > 10000 nM
Structure (SMILES): CC[C@H]1NC(=O)[C@@H](C)N(C)C(=O)[C@H]([C@@H](C)CC)NCCOc2ccccc2CCCNC1=O [compound 205]

Ki [2, 3]: > 10000 nM
Structure (SMILES): CC(C)CC1NCCOc2ccccc2C=CCNC(=O)C(CC(C)C)NC(=O)C2(CCCC2)NC1=O (centres unmarked) [compound 47]

Ki [2, 8]: 100 to 1000 nM
Structure (SMILES): CCC(C)[C@@H]1NCCOc2ccccc2CCCNC(=O)[C@@H](Cc2ccccc2)N2CC[C@@H](NC1=O)C2=O (some centres unmarked)

Ki [2, 3]: > 1000 nM
Structure (SMILES): CCC(C)C1NCCOc2ccccc2CCCNC(=O)C(Cc2ccccc2)NC(=O)C(CC(C)C)N(C)C1=O (centres unmarked) [compound 147]

Ki [2, 3]: 100 to 1000 nM
Structure (SMILES): CCC[C@@H]1NCCOc2ccccc2CCCNC(=O)[C@@H](Cc2ccccc2)NC(=O)CNC1=O [compound 61]

Ki [2, 3]: > 10000 nM
Structure (SMILES): CCCC1NCCC#CCCNC(=O)C(Cc2ccccc2)NC(=O)CN(C)C1=O (centres unmarked) [compound 82]

Ki [2, 3]: 1000 to 10000 nM
Structure (SMILES): O=C1NC2(CCCC2)C(=O)NC(Cc2ccccc2)C(=O)NCC=Cc2ccccc2OCCNC1Cc1cccc2ccccc12 (centres unmarked) [compound 130]

Ki [2, 5]: 0.1 to 10 nM
Structure (SMILES): C[C@@H]1C(=O)N[C@H](Cc2cc(F)c(F)c(F)c2)C(=O)NCCCc2ccccc2OCCN[C@@H](C2CC2)C(=O)N1C [compound 391]

Ki [2, 6]: > 10000 nM
Structure (SMILES): CCC(C)C1NC(=O)C2(CCCC2)NC(=O)C(CC(C)C)NCCOc2ccccc2C=CCNC1=O (centres unmarked) [compound 167]

Ki [2, 7]: > 10000 nM
Structure (SMILES): CCC(C)C1NCCOc2ccccc2/C=C/CNC(=O)C(COC)NC(=O)C2(CCCC2)NC1=O (single isomer, unassigned) [443a]

Ki [2, 5]: 100 to 1000 nM
Structure (SMILES): C[C@@H]1C(=O)N[C@H](Cc2ccc(F)cc2)C(=O)NCCCc2ccccc2OCCN[C@@H](CCN)C(=O)N1C [compound 338]

Ki [2, 3]: 1000 to 10000 nM
Structure (SMILES): O=C1CNCCOc2ccccc2CCCNC(=O)C(Cc2ccccc2)NC(=O)C2(CCCC2)N1 (centres unmarked) [compound 112]

Ki [2, 3]: 1000 to 10000 nM
Structure (SMILES): CCC[C@@H]1NCCOc2ccccc2CCCNC(=O)[C@@H](Cc2ccccc2)NC(=O)[C@H](CC(C)C)NC1=O [compound 62]

Ki ([2]; Table 3C (compounds 18, 334-397), human ghrelin receptor, read-out: Ki): 100 to 1000 nM
Structure (SMILES): C[C@@H]1NC(=O)C2(CCCC2)NCCOc2ccccc2C=CCNC(=O)[C@H](Cc2cccc(Cl)c2)NC1=O (stereo in doubt) [compound 352]
